Results on 1 molecule are retold here after patent US20160193139A1, “Composition having A. paniculata for wound healing and skin whitening, and method by using the same” (National Dong Hua University, priority 2013, published 2016).

In assay [1] the test system is CCD-966SK cells. Nature of the assay: MTT cell viability assay, CCD-966SK cells. The class given is cell-based, human. Particulars: 50 μg/ml; 24 and 48 h; FIG. 2B. The procedure: (§1) HaCaT cell is an immortal human keratinocyte line (CLS order no. 300493) and A375 cell is a human melanoma cell line (ATCC, CRL-1619) that isolated from malignant melanoma. Both cells were cultured in Dulbecco's Modified Eagle Medium (DMEM; Gibco, Carlsbad, Calif., USA) with 10% fetal bovine serum (FBS; Gibco), and 1% Penicillin/Streptomycin (Biowest) in culture incubator at 37° C., 5% CO2. CCD-966SK is a human skin fibroblast (ATCC, CRL-1881) cell line that taken from the breast of patient with invasive ductal carcinoma and cultured in Minimum Essential Medium (MEM; Gibco) with 10% FBS, 1% sodium pyruvate (Biowest), and 1% Penicillin/Streptomycin (Biowest) in culture incubator at 37° C., 5% CO2.
(§2) The 3-(4,5-dimethylthiazol-2-yl)-2,5-diphenyltetrazolium bromide (MTT, Invitrogen) is a colorimetric based assay that is performed to analyze the proliferation of cells. Cells (1×10^4 cells) were seeded in 96 well plates for overnight. […] The media was removed, and formazan was solubilized by adding 100 of DMSO (Sigma-Aldrich) and absorbance was measured at 570 nm using a microplate reader (Thermo Labsystems, Opsys MR, USA). […]
A general note: Formazan colour is commonly taken as a measure of viable cells.

Assay [2] deals with HaCaT cells. Nature of the assay: MTT cell viability assay, HaCaT cells. Particulars: FIG. 1B. In kind it is cell-based, human. The procedure:
as §1, §2

Assay [3] concerns burn wound on back skin of C57BL/6 mice. Description: Animal skin injury (burn wound) model, wound healing. Particulars: for Wound Area: cream spread on burned site once/day, extract and Andrographolide 0.1 mg/ml, Silver sulfadiazine 1%, mean ± SD. In kind it is in vivo.
Method: These mice were used between 8 to 10 weeks of age and age-matched for each experiment.
A cream matrix containing 1 g polyethylene glycol/poly propylene glycol/poly ethylene glycol (PEG-PPG-PEG; MW=5800; Sigma), 2 ml polyethylene glycol-400 (PEG-400; FCW®, Taiwan), and 3 ml polyethylene glycol-1500 (PEG-1500; FCW®, Taiwan) was formed. The solution of A. paniculata extract and Andrographolide was added into cream matrix and completely mixed (for both of them, the final concentration is 0.1 mg/ml).
Mice were anesthetized by pentobarbital (50 mg/kg) and removed the hair of back. A stainless steel cylinder tool (1 cm in diameter, 0.785 cm^2 cm in area) was heated for 20 sec and attached on back skin of mice for 2 sec. […] The wound area was measured on days 1, 3, 5, 7, 9, 11, 13, 15, 17, 19, and 21 after drug treatment.
Assay [4] deals with A375 cell. Description: MTT cell viability assay, A375 cells. Particulars: dose-dependent manner; FIG. 5A. In kind it is cell-based, human. The procedure:
as §1, §2

In assay [5] the test system is melanin in A375 cells. Description: Melanin assay in A375 cells. The class given is cell-based, human. Particulars: after normalization with cell number, dose-dependent manner, FIG. 5B. The procedure:
Cells (1×10^5 cells) were seeded in 12 well plates and treated with drugs for 24 or 48 hr. Plates were washed with PBS and added 0.5 ml of 1N NaOH, and heating at 100° C. for 1 h. Plates were then centrifuged at 12,000 rpm for 30 min at 25° C. Supernatants (100 μl/well) were added into 96 well plates, and the secretion of melanin was determined by measuring the absorbance at 405 nm using microplate reader (Thermo Labsystems).

With `C=C1CC[C@@H]2[C@](C)(CO)[C@H](O)CC[C@@]2(C)[C@@H]1C/C=C1/C(=O)OC[C@H]1O` [Andrographolide], in assay [1], the “cell viability of CCD-966SK cells” value was “significantly decreased”. Besides, the “cell viability of HaCaT cells” value in assay [2] (50 μg/ml, 24 and 48 h) is “significantly decreased”; in assay [2] (low doses (1, 5, and 10 μg/ml), 24 h), “significantly enhanced”. The “wound healing rate compared with silver sulfadiazine-treated mice” value in assay [3] (0.1 mg/ml cream once/day vs Silver sulfadiazine 1%, FIG. 3) is given as “two days earlier”. The “Wound Area” value in assay [3] (DAY 1) came out at 133.57 ± 28.46 mm^2; in assay [3] (DAY 3) it was 111.94 ± 24.09 mm^2; in assay [3] (DAY 5), 85.15 ± 13.35 mm^2; in assay [3] (DAY 7), 48.43 ± 5.91 mm^2; in assay [3] (DAY 9), 28.22 ± 9.40 mm^2; in assay [3] (DAY 11), 16.46 ± 5.43 mm^2. Besides, the “Wound Area” value in assay [3] (DAY 13) is 11.62 ± 4.49 mm^2; in assay [3] (DAY 15) it was 6.94 ± 5.04 mm^2; in assay [3] (DAY 17), 4.12 ± 3.96 mm^2; in assay [3] (DAY 19), 0 mm^2; in assay [3] (DAY 21), 0 mm^2. The “cell viability of A375 cell” value in assay [4] is given as “significantly inhibited”. Besides, the “expression level of melanin” value in assay [5] is given as “significantly inhibited”.
